In ChEMBL document CHEMBL1122492, “Synthesis of iodine-125 labeled (+/-)-15-(4-azidobenzyl)carazolol: a potent beta-adrenergic photoaffinity probe” (J Med Chem, 1983):

How the values were obtained:
[1] = Dissociation constant against beta adrenergic receptor of turkey erythrocyte membranes
[2] = Dissociation constant against beta adrenergic receptor of frog erythrocyte membranes
[3] = Dissociation constant against beta adrenergic receptor

Row | Structure (SMILES) | Kd [1] | Kd [2] | Kd [3]
1 | CC(C)(Cc1ccc(N=[N+]=[N-])c(I)c1)NCC(O)COc1cccc2[nH]c3ccccc3c12 (stereo not given) | 0.02 nM | 0.02 nM | –
2 | CC(C)NCC(O)COc1cccc2[nH]c3ccccc3c12 (stereo not given) [CARAZOLOL] | – | – | 0.1 nM
3 | CC(C)(Cc1ccc(N=[N+]=[N-])cc1)NCC(O)COc1ccc(I)c2[nH]c3ccccc3c12 (stereo not given) | 0.02 nM | 0.02 nM | –
